Values joined by “and” are separate entries in the source; they are usually repeats but may differ in a detail not shown here. Identical values can stand only once. “Also recorded” adds a separate entry of the source.
How the values were obtained:
[1] = test system: dopamine (DA) neurons in the posterior VTA; test: VTA dopamine cell soma morphology (TH staining, STEREO INVESTIGATOR); assay type: in vivo, rat; conditions: 5 consecutive daily i.v. injections; morphine effect at 5.6 mg/Kg
Procedure: DA morphology analysis: Fifteen min following the final CPP test session, rats were anesthetized with a mixture of ketamine/xylazine (85/10 mg/Kg, i.p., respectively) and perfused intracardially with 200 mL of 0.1 mol/L phosphate buffered saline (PBS) immediately followed by 300 mL of 4% paraformaldehyde in 0.1 mol/L PBS (pH=7.4). Brains were removed and post-fixed at 4° C. in the same fixative for 18 h. After post-fixation, brains were incubated in 30% sucrose at 4° C. for 2 days and sectioned coronally on a cryostat at 40 μm at the level of the posterior VTA (Spiga et al., 2003; Chu et al., 2008). After 2 consecutive washes in PBS, sections were blocked with 5% normal donkey serum (NDS) for 1 h, and incubated with the primary antibody anti-tyrosine-hydroxylase (anti-TH, 1: 3000 Cell Signaling Technology, Danvers, Mass.) overnight at 4° C. Slices were washed twice in PBS, re-blocked for 1 h, and incubated with the secondary antibody ALEXA594 (Life Technologies, Carlsbad, Calif.), for 2 h. Sections were washed, mounted on slides with PROLONG GOLD (Life Technologies), and stored at 4° C. Posterior VTA sections were verified according to the atlas of Paxinos and Watson (2007). Images of the parabrachial pigmented area (PBP) and the paranigral area (PN) subregions of the posterior VTA were captured in z-stacks (1 μm) with at least 5 tissue slices per rat and 5-6 rats per drug group. STEREO INVESTIGATOR software (MBF Bioscience; Williston, Va.) was used to quantify soma size using the optical fractionator probe to survey a sample of neurons in each z-stack while the nucleator probe was used to measure the cross-sectional area and volume of each cell soma. The optical fractionator probe was used to quantify the number of cells in a particular section of tissue through systematic random sampling. Between 12 and 16 regions were surveyed per z-stack. While the optical fractionator probe utilized stereological techniques to select a random sample to be analyzed, the nucleator probe measured the cross-sectional area of each neuron. Therefore, the simultaneous use of these probes systematically assessed neurons in the PBP and PN regions of the VTA in each subject, and provided morphological data for these cells including surface area (μm^2) and volume (μm^3). Cell somas were eligible to be quantified if they were located within the counting frame and/or if the soma touched either of the nucleator frame's green borders. Neurons were ineligible if located outside the counting frame and/or if their soma touched the frame's red borders. After determining this optimum depth, the center of the soma was located and analyzed by the nucleator probe. To eliminate bias associated with tissue orientation, nucleator rays were randomly arranged between quantifications. […]

[2] = test system: rats trained to discriminate morphine from vehicle; test: Drug discrimination (DD), morphine-trained rats; conditions: for Response rate impairment %: highest dose tested (5.6 mg/Kg), percent of vehicle responding
Procedure: Drug Discrimination (DD): Rats were food deprived to approximately 85% of the weight of free feeding cohorts to establish operant responding for 45 mg food pellets (Bioserve, Frenchtown, N.J.) in standard operant chambers (MED Associates, St. Albans, Vt.). Rats were fed 10-20 g of standard food after daily DD sessions, and ˜3× the daily amount on weekends to maintain appropriate weight. DD consisted of 3 phases (Krivsky et al., 2006). In phase 1, rats were trained to lever press for food at a fixed ratio (FR) level 1 (i.e., 1 lever press=1 food pellet) using 2 levers with stimulus lights located above each lever and a food hopper between the levers during 120 min sessions. Responding on either lever extinguished the light and delivered a food pellet. […] Once >20 pellets were earned at FR9, sessions were shortened to 20 min and response requirements were set at FR10 and the left or right lever reinforced responding on alternate days. Once >20 pellets were earned on each lever at FR10, rats started phase 2 of DD training.
Only responses on the correct lever were reinforced and responses on the incorrect lever reset the response requirement on the correct lever. Criteria to move to phase 3 were as follows: >20 pellets per session, >90% injection appropriate lever responding, and <9 responses on the incorrect lever before the first food pellet reward.
Two paradigms were utilized to generate substitution curves: cumulative within-session and bolus between-session injections.
During substitution tests, both levers actively delivered food at an FR10 schedule. […] Doses were increased in ¼ log increments, with injections every 20 min followed 15 minutes later by DD sessions lasting 5 min each. […] The advantage of this procedure was that an entire dose-response was generated in one session.
Statistics: PRISM software (GraphPad, San Diego, Calif.) was used for one-way analysis of variance (ANOVA) with Newman-Keuls post-hoc comparisons to compare CPP groups, locomotor effects, hot plate, and DD response rates. Locomotor data recorded during the conditioning sessions were analyzed by 2-way ANOVA (session x drug) and data from the first session were subtracted from the final session to assess locomotor enhancement. Experimenters were blinded to treatment groups.

male rats = test: Maintenance of established oxycodone self-administration (substitution); assay type: in vivo, rat
Procedure: Self-administration (SA): Self-administration tests were conducted in standard operant chambers (MED Associates, St. Albans, Vt.). Infusions were delivered through TYGON tubing threaded through metal spring leashes and attached to exterior infusion pumps. 3-hour sessions were conducted Monday-Friday during the dark cycle. At the start of each session, the house light was illuminated, and levers extended. […] For the first 5 sessions, rats were trained to lever press for oxycodone (0.1 mg/kg/infusion) on a FR1 reinforcement schedule. For the following 10 sessions, the dose of oxycodone was decreased to 0.05 mg/kg/infusion to increase lever responding.
Maintenance of established oxycodone self-administration: Following acquisition of oxycodone self-administration, animals were split into treatment groups counterbalanced for total oxycodone intake, average number of infusions obtained in the last 3 sessions, and average number of active lever pressings over the last 3 sessions. Ten maintenance sessions were conducted in the same way as oxycodone acquisition except rats were either maintained on 0.1 mg/kg/infusion oxycodone or had drug availability substituted with equi-antinociceptive 1 mg/kg/infusion ZH853 or vehicle.

glia = conditions: conditions where morphine activates glia; cited from earlier work
rats = conditions: cited from earlier work
male and female mice = conditions: acute, equi-antinociceptive doses

NC(=O)CNC(=O)[C@@H]1CCC(=O)NCCCC[C@@H](NC(=O)[C@@H](N)Cc2ccc(O)cc2)C(=O)N[C@@H](Cc2c[nH]c3ccccc23)C(=O)N[C@@H](Cc2ccccc2)C(=O)N1 [ZH853, Tyr-c[D-Lys-Trp-Phe-Glu]-Gly-NH2]
surface area of TH-positive somas in pVTA [1]: did not alter
volume of TH-positive somas in pVTA [1]: did not alter
Response rate impairment % ([2]; bolus injections): 15% and 15.1%
Response rate impairment % ([2]; cumulative injections): 0.8%
response rates for food during test sessions ([2]; i.v., compared to vehicle): not impaired; also recorded: lowest among all compounds tested
self-administration behavior during maintenance sessions (male rats; after acquisition of oxycodone SA, drug continued or substituted, i.v. infusions): the self-administration behavior extinguished over time; also recorded: reduced the number of infusions obtained (C) and active lever responses (D) over maintenance sessions
rate of extinction of self-administration (male rats; substitution for oxycodone): faster than with vehicle substitution
glial activation (glia): lack of glial activation
hourly SA intake (peak) (rats; 12-hour SA sessions, 3 mg/Kg/infusion): 1.1 mg/kg/h
reinforcing effects in SA/CPP procedures (rats; rat, in vivo): did not produce reinforcing effects in SA/CPP procedures
distance traveled (AUC) (male and female mice): did not affect the distance traveled
